Test results taken from ChEMBL document CHEMBL4138123, “Design, synthesis and biological evaluation of novel pyrazolochalcones as potential modulators of PI3K/Akt/mTOR pathway and inducers of apoptosis in breast cancer cells” (Eur J Med Chem, 2017).

What was measured:
Assay type in all cases: functional
CCRF-CEM = assay: Cytotoxicity against human CCRF-CEM cells assessed as growth inhibition after 48 hrs by sulforhodamine B assay
HL-60(TB) [1] = assay: Cytotoxicity against human HL-60(TB) cells assessed as growth inhibition after 48 hrs by sulforhodamine B assay; conditions: HL-60, 48 h
MOLT-4 = assay: Cytotoxicity against human MOLT4 cells assessed as growth inhibition after 48 hrs by sulforhodamine B assay; conditions: MOLT-4, 48 h
IGROV-1 [2] = assay: Cytotoxicity against human IGROV1 cells assessed as growth inhibition after 48 hrs by sulforhodamine B assay; conditions: IGROV-1, 48 h
OVCAR-3 [3] = assay: Cytotoxicity against human OVCAR3 cells assessed as growth inhibition after 48 hrs by sulforhodamine B assay; conditions: OVCAR-3, 48 h
MCF7 [4] = assay: Cytotoxicity against human MCF7 cells assessed as growth inhibition after 48 hrs by sulforhodamine B assay; conditions: MCF7, 48 h
A498 = assay: Cytotoxicity against human A498 cells assessed as cell growth at 0.01 uM after 48 hrs by sulforhodamine B assay relative to control; conditions: A498, 48 h, read-out: Activity
NCI/ADR-RES = assay: Cytotoxicity against human NCI/ADR-RES cells assessed as cell growth at 0.01 uM after 48 hrs by sulforhodamine B assay relative to control; conditions: read-out: Activity
SK-MEL-28 = assay: Cytotoxicity against human SK-MEL-28 cells assessed as cell growth at 0.01 uM after 48 hrs by sulforhodamine B assay relative to control; conditions: SK-MEL-28, 48 h, read-out: Activity
Malme-3M = assay: Cytotoxicity against human MALME-3M cells assessed as cell growth at 0.01 uM after 48 hrs by sulforhodamine B assay relative to control; conditions: read-out: Activity
NCI-H522 = assay: Cytotoxicity against human NCI-H522 cells assessed as cell growth at 0.01 uM after 48 hrs by sulforhodamine B assay relative to control; conditions: NCI-H522, 48 h, read-out: Activity
RPMI-8226 [5] = assay: Cytotoxicity against human RPMI8226 cells assessed as cell growth at 0.01 uM after 48 hrs by sulforhodamine B assay relative to control; conditions: RPMI-8226, 48 h, read-out: Activity
HL-60(TB) [6] = assay: Cytotoxicity against human HL-60(TB) cells assessed as cell growth at 0.1 uM after 48 hrs by sulforhodamine B assay relative to control; conditions: HL-60, 48 h, read-out: Activity
RPMI-8226 [7] = assay: Cytotoxicity against human RPMI8226 cells assessed as cell growth at 0.1 uM after 48 hrs by sulforhodamine B assay relative to control; conditions: RPMI-8226, 48 h, read-out: Activity
A549 [8] = assay: Cytotoxicity against human A549/ATCC cells assessed as cell growth at 0.1 uM after 48 hrs by sulforhodamine B assay relative to control; conditions: A549, 48 h, read-out: Activity
COLO 205 = assay: Cytotoxicity against human COLO205 cells assessed as cell growth at 0.1 uM after 48 hrs by sulforhodamine B assay relative to control; conditions: COLO 205, 48 h, read-out: Activity
SNB-19 [9] = assay: Cytotoxicity against human SNB19 cells assessed as cell growth at 0.1 uM after 48 hrs by sulforhodamine B assay relative to control; conditions: SNB-19, 48 h, read-out: Activity
OVCAR-5 = assay: Cytotoxicity against human OVCAR5 cells assessed as cell growth at 0.1 uM after 48 hrs by sulforhodamine B assay relative to control; conditions: OVCAR-5, 48 h, read-out: Activity
PC-3 = assay: Cytotoxicity against human PC3 cells assessed as cell growth at 0.1 uM after 48 hrs by sulforhodamine B assay relative to control; conditions: PC-3, 48 h, read-out: Activity
MCF7 [10] = assay: Cytotoxicity against human MCF7 cells assessed as cell growth at 0.1 uM after 48 hrs by sulforhodamine B assay relative to control; conditions: MCF7, 48 h, read-out: Activity
T47D [11] = assay: Cytotoxicity against human T47D cells assessed as cell growth at 0.1 uM after 48 hrs by sulforhodamine B assay relative to control; conditions: read-out: Activity
HL-60(TB) [12] = assay: Cytotoxicity against human HL-60(TB) cells assessed as cell growth at 1 uM after 48 hrs by sulforhodamine B assay relative to control; conditions: HL-60, 48 h, read-out: Activity
RPMI-8226 [13] = assay: Cytotoxicity against human RPMI8226 cells assessed as cell growth at 1 uM after 48 hrs by sulforhodamine B assay relative to control; conditions: RPMI-8226, 48 h, read-out: Activity
A549 [14] = assay: Cytotoxicity against human A549/ATCC cells assessed as cell growth at 1 uM after 48 hrs by sulforhodamine B assay relative to control; conditions: A549, 48 h, read-out: Activity
SN12C [15] = assay: Cytotoxicity against human SN12C cells assessed as cell growth at 1 uM after 48 hrs by sulforhodamine B assay relative to control; conditions: read-out: Activity
UO-31 = assay: Cytotoxicity against human UO31 cells assessed as cell growth at 1 uM after 48 hrs by sulforhodamine B assay relative to control; conditions: UO-31, 48 h, read-out: Activity
Hs-578T = assay: Cytotoxicity against human Hs 578T cells assessed as cell growth at 1 uM after 48 hrs by sulforhodamine B assay relative to control; conditions: read-out: Activity
A549 [16] = assay: Cytotoxicity against human A549/ATCC cells assessed as cell growth at 10 uM after 48 hrs by sulforhodamine B assay relative to control; conditions: A549, 48 h, read-out: Activity
SNB-19 [17] = assay: Cytotoxicity against human SNB19 cells assessed as cell growth at 10 uM after 48 hrs by sulforhodamine B assay relative to control; conditions: SNB-19, 48 h, read-out: Activity
U-251 [18] = assay: Cytotoxicity against human U251 cells assessed as cell growth at 10 uM after 48 hrs by sulforhodamine B assay relative to control; conditions: U-251, 48 h, read-out: Activity
IGROV-1 [19] = assay: Cytotoxicity against human IGROV1 cells assessed as cell growth at 10 uM after 48 hrs by sulforhodamine B assay relative to control; conditions: IGROV-1, 48 h, read-out: Activity
SN12C [20] = assay: Cytotoxicity against human SN12C cells assessed as cell growth at 10 uM after 48 hrs by sulforhodamine B assay relative to control; conditions: read-out: Activity
NCI-H322M = assay: Cytotoxicity against human NCI-H322M cells assessed as cell growth at 100 uM after 48 hrs by sulforhodamine B assay relative to control; conditions: read-out: Activity
U-251 [21] = assay: Cytotoxicity against human U251 cells assessed as cell growth at 100 uM after 48 hrs by sulforhodamine B assay relative to control; conditions: U-251, 48 h, read-out: Activity
OVCAR-3 [22] = assay: Cytotoxicity against human OVCAR3 cells assessed as cell growth at 100 uM after 48 hrs by sulforhodamine B assay relative to control; conditions: OVCAR-3, 48 h, read-out: Activity
SK-OV-3 = assay: Cytotoxicity against human SKOV3 cells assessed as cell growth at 100 uM after 48 hrs by sulforhodamine B assay relative to control; conditions: SK-OV-3, 48 h, read-out: Activity
T47D [23] = assay: Cytotoxicity against human T47D cells assessed as cell growth at 100 uM after 48 hrs by sulforhodamine B assay relative to control; conditions: read-out: Activity

Q: `COc1ccc(-c2cc(/C=C/C(=O)c3cc(OC)c(OC)c(OC)c3)[nH]n2)cc1OC` was tested. Which GI50 (CCRF-CEM) did it give?
A: 340 nM

Q: What about the LC50 (concentration killing 50% of cells) (CCRF-CEM) of the same compound?
A: > 100 µM

Q: And the TGI (CCRF-CEM)?
A: 3.13 µM

Q: What about the GI50 (HL-60(TB) [1]) of the same compound?
A: 1690 nM

Q: What about the LC50 (HL-60(TB) [1]) of the same compound?
A: > 100 µM

Q: And the TGI (HL-60(TB) [1])?
A: 14.8 µM

Q: And the GI50 (MOLT-4)?
A: 1810 nM

Q: And the TGI (MOLT-4)?
A: 8.86 µM

Q: What about the CC50 (MOLT-4; read-out: LC50 (the source's name)) of the same compound?
A: > 100 µM

Q: What about the GI50 (IGROV-1 [2]) of the same compound?
A: 2720 nM

Q: What about the LC50 (IGROV-1 [2]) of the same compound?
A: 46.7 µM

Q: What about the TGI (IGROV-1 [2]) of the same compound?
A: 8.61 µM

Q: And the GI50 (OVCAR-3 [3])?
A: 1590 nM

Q: What about the LC50 (OVCAR-3 [3]) of the same compound?
A: 6.23 µM

Q: And the TGI (OVCAR-3 [3])?
A: 3.15 µM

Q: And the GI50 (MCF7 [4])?
A: 1060 nM

Q: What about the TGI (MCF7 [4]) of the same compound?
A: 2500 nM

Q: And the growth at 0.01 µM (A498)?
A: 99%

Q: And the growth at 0.01 µM (NCI/ADR-RES)?
A: 97%

Q: What about the growth at 0.01 µM (SK-MEL-28) of the same compound?
A: 95%

Q: What about the growth at 0.01 µM (Malme-3M) of the same compound?
A: 98%

Q: And the growth at 0.01 µM (NCI-H522)?
A: 89%

Q: And the growth at 0.01 µM (RPMI-8226 [5])?
A: 97%

Q: And the growth at 0.1 µM (HL-60(TB) [6])?
A: 93%

Q: What about the growth at 0.1 µM (RPMI-8226 [7]) of the same compound?
A: 85%

Q: What about the growth at 0.1 µM (A549 [8]) of the same compound?
A: 98%

Q: And the growth at 0.1 µM (COLO 205)?
A: 89%

Q: And the growth at 0.1 µM (SNB-19 [9])?
A: 92%

Q: What about the growth at 0.1 µM (OVCAR-5) of the same compound?
A: 92%

Q: And the growth at 0.1 µM (PC-3)?
A: 93%

Q: And the growth at 0.1 µM (MCF7 [10])?
A: 86%

Q: What about the growth at 0.1 µM (T47D [11]) of the same compound?
A: 83%

Q: And the growth at 1 µM (HL-60(TB) [12])?
A: 64%

Q: And the growth at 1 µM (RPMI-8226 [13])?
A: 11%

Q: And the growth at 1 µM (A549 [14])?
A: 82%

Q: What about the growth at 1 µM (SN12C [15]) of the same compound?
A: 87%

Q: And the growth at 1 µM (UO-31)?
A: 67%

Q: And the growth at 1 µM (Hs-578T)?
A: 86%

Q: And the growth at 10 µM (A549 [16])?
A: -2%

Q: And the growth at 10 µM (SNB-19 [17])?
A: -29%

Q: What about the growth at 10 µM (U-251 [18]) of the same compound?
A: -97%

Q: What about the growth at 10 µM (IGROV-1 [19]) of the same compound?
A: -7%

Q: And the growth at 10 µM (SN12C [20])?
A: -62%

Q: What about the growth at 100 µM (NCI-H322M) of the same compound?
A: -91%

Q: What about the growth at 100 µM (U-251 [21]) of the same compound?
A: -94%

Q: What about the growth at 100 µM (OVCAR-3 [22]) of the same compound?
A: -83%

Q: What about the growth at 100 µM (SK-OV-3) of the same compound?
A: -95%

Q: What about the growth at 100 µM (T47D [23]) of the same compound?
A: -47%
